From patent US20250243189A1, “HERBICIDAL IMIDAZOLE-CONTAINING COMPOUNDS” (SYNGENTA CROP PROTECTION AG, priority 2022, published 2025) come the findings set out here.

Molecules are shown by their SMILES.

Holding throughout (type): in vivo
What all share (settings): 250 g/ha, evaluated after 13 days, five-point scale

Assay [1] deals with IPOHE. The assay is described as follows: Post-emergence herbicidal glasshouse test. How it is done:
(§1) Seeds of a variety of test species are sown in standard soil in pots Amaranthus retoflexus (AMARE), Echinochloa crus-galli (ECHCG), Setaria faberi (SETFA)). After cultivation for one day (pre-emergence) or after 8 days cultivation (post-emergence) under controlled conditions in a glasshouse (at 24/16° C., day/night; 14 hours light; 65% humidity), the plants are sprayed with an aqueous spray solution derived from the formulation of the technical active ingredient in acetone/water (50:50) solution containing 0.5% Tween 20 (polyoxyethelyene sorbitan monolaurate, CAS RN 9005-64-5). Compounds are applied at 250 g/ha unless otherwise stated. The test plants are then grown in a glasshouse under controlled conditions in a glasshouse (at 24/16° C., day/night; 14 hours light; 65% humidity) and watered twice daily. After 13 days for pre and post-emergence, the test is evaluated for the percentage damage caused to the plant. The biological activities are shown in the following table on a five-point scale (5=81-100%; 4=61-80%; 3=41-60%; 2=21-40%; 1=0-20%).

In assay [2] the test system is AMAPA. Description: Post-emergence herbicidal glasshouse test. Here is the method:
[Worded in the source for another organism; this organism is reported under the same test.] as §1

The subject of assay [3] is Echinochloa crus-galli (ECHCG). Description: Post-emergence herbicidal glasshouse test. Here is the method: as §1
Assay [4] deals with Amaranthus retoflexus (AMARE). Description: Post-emergence herbicidal glasshouse test. Here is the method: as §1
In assay [5] the test system is IPOHE. The assay is described as follows: Pre-emergence herbicidal glasshouse test. Here is the method: as §1
Assay [6] concerns AMAPA. Description: Pre-emergence herbicidal glasshouse test. Here is the method:
[Worded in the source for another organism; this organism is reported under the same test.] as §1

Assay [7] relates to Echinochloa crus-galli (ECHCG). Description: Pre-emergence herbicidal glasshouse test. Here is the method: as §1
Assay [8] deals with Amaranthus retoflexus (AMARE). Description: Pre-emergence herbicidal glasshouse test. How it is done: as §1

Consider `FC(F)(F)c1cn(Cc2ncc(Cl)cn2)c(-c2csc(Cl)c2)n1` [Compound 1.021], for which the “percentage damage caused to the plant, IPOHE” value with IPOHE [1] and in the assay on IPOHE [5] was 4 (4=61-80%) in each case. Further, the “percentage damage caused to the plant, AMAPA” value in the assay on AMAPA [2] and in the assay on AMAPA [6] was 5 (5=81-100%) each time. The entries for the “percentage damage caused to the plant, ECHCG” value in assay [3] and in assay [7] were 4 (4=61-80%) and 5 (5=81-100%), respectively. Besides, the entries for the “percentage damage caused to the plant, AMARE” value in assay [4] and in assay [8] were 4 (4=61-80%) and 5 (5=81-100%), respectively.

Take `N#Cc1ccc(-c2nc(C(F)(F)F)cn2Cc2ncc(Cl)cn2)s1` [Compound 1.027]: the “percentage damage caused to the plant, IPOHE” value with IPOHE [1] was 4 (4=61-80%); in the assay with IPOHE [5], 5 (5=81-100%). Moreover, the “percentage damage caused to the plant, AMAPA” value with AMAPA [2] and with AMAPA [6] was 5 (5=81-100%) throughout. Also, the “percentage damage caused to the plant, ECHCG” value in assay [3] and in assay [7] was 5 (5=81-100%) throughout. Further, the “percentage damage caused to the plant, AMARE” value in assay [4] and in assay [8] was 5 (5=81-100%) each time.

Take `Fc1ccc(-c2nc(C(F)(F)F)cn2Cc2ncc(Cl)cn2)s1` [Compound 1.038]: the “percentage damage caused to the plant, IPOHE” value in the assay on IPOHE [1] was 4 (4=61-80%); in the assay on IPOHE [5], 5 (5=81-100%). In addition, the “percentage damage caused to the plant, AMAPA” value is listed as 4 (4=61-80%) with AMAPA [2] and 5 (5=81-100%) in the assay on AMAPA [6]. Besides, the “percentage damage caused to the plant, ECHCG” value in assay [3] and in assay [7] was 5 (5=81-100%) in each case. The “percentage damage caused to the plant, AMARE” value in assay [4] and in assay [8] was 5 (5=81-100%) each time.

With `Cc1ncsc1-c1nc(C(F)(F)F)cn1Cc1ncc(Cl)cn1` [Compound 1.042], the entries for the “percentage damage caused to the plant, IPOHE” value in the assay on IPOHE [1] and with IPOHE [5] were 4 (4=61-80%) and 5 (5=81-100%), respectively. The “percentage damage caused to the plant, AMAPA” value in the assay with AMAPA [2] and with AMAPA [6] was 5 (5=81-100%) throughout. In addition, the results for the “percentage damage caused to the plant, ECHCG” value in assay [3] and in assay [7] were 4 (4=61-80%) and 5 (5=81-100%), respectively. The “percentage damage caused to the plant, AMARE” value in assay [4] and in assay [8] was 5 (5=81-100%) each time.

Consider `Cn1cc(Cl)c(-c2nc(C(F)(F)F)cn2Cc2ncc(Cl)cn2)n1` [Compound 1.043], for which the “percentage damage caused to the plant, IPOHE” value in the assay on IPOHE [1] and in the assay with IPOHE [5] was 1 (1=0-20%) in each case. In addition, the “percentage damage caused to the plant, AMAPA” value in the assay with AMAPA [2] and in the assay on AMAPA [6] was 1 (1=0-20%) each time. The “percentage damage caused to the plant, ECHCG” value in assay [3] and in assay [7] was 1 (1=0-20%) throughout. In addition, the “percentage damage caused to the plant, AMARE” value in assay [4] and in assay [8] was 1 (1=0-20%) each time.

As for `FC(F)(F)c1cn(Cc2ncc(Cl)cn2)c(-c2sccc2Br)n1` [Compound 1.044], the “percentage damage caused to the plant, IPOHE” value in the assay on IPOHE [1] is recorded as 3 (3=41-60%); with IPOHE [5] it was 1 (1=0-20%). Moreover, the “percentage damage caused to the plant, AMAPA” value is given as 2 (2=21-40%) with AMAPA [2] and 5 (5=81-100%) in the assay with AMAPA [6]. Further, the “percentage damage caused to the plant, ECHCG” value in assay [3] and in assay [7] was 1 (1=0-20%) in each case. Also, the “percentage damage caused to the plant, AMARE” value is 2 (2=21-40%) in assay [4] and 5 (5=81-100%) in assay [8].

As for `FC(F)(F)c1cn(Cc2ncc(Cl)cn2)c(-c2scnc2Cl)n1` [Compound 1.045], the “percentage damage caused to the plant, IPOHE” value with IPOHE [1] is recorded as 4 (4=61-80%); in the assay with IPOHE [5], 5 (5=81-100%). The “percentage damage caused to the plant, AMAPA” value was 4 (4=61-80%) in the assay with AMAPA [2] and 5 (5=81-100%) in the assay on AMAPA [6]. Also, the “percentage damage caused to the plant, ECHCG” value in assay [3] was 2 (2=21-40%); in assay [7], 1 (1=0-20%). In addition, the entries for the “percentage damage caused to the plant, AMARE” value in assay [4] and in assay [8] were 4 (4=61-80%) and 5 (5=81-100%), respectively.

In the case of `FC(F)(F)c1cn(Cc2ncc(Cl)cn2)c(-c2sc(Cl)nc2Cl)n1` [Compound 1.046], the “percentage damage caused to the plant, IPOHE” value in the assay on IPOHE [1] and in the assay with IPOHE [5] was 1 (1=0-20%) in each case. Also, the “percentage damage caused to the plant, AMAPA” value in the assay with AMAPA [2] was 2 (2=21-40%); in the assay with AMAPA [6] it was 4 (4=61-80%). Moreover, the “percentage damage caused to the plant, ECHCG” value in assay [3] and in assay [7] was 1 (1=0-20%) throughout. The “percentage damage caused to the plant, AMARE” value in assay [4] is listed as 2 (2=21-40%); in assay [8] it was 1 (1=0-20%).

Take `FC(F)(F)c1cn(Cc2ccc(Cl)cn2)c(-c2ccc(Cl)s2)n1` [Compound 1.047]: the “percentage damage caused to the plant, IPOHE” value is 4 (4=61-80%) with IPOHE [1] and 2 (2=21-40%) in the assay on IPOHE [5]. The “percentage damage caused to the plant, AMAPA” value in the assay on AMAPA [2] and with AMAPA [6] was 5 (5=81-100%) each time. For the same compound, the “percentage damage caused to the plant, ECHCG” value in assay [3] and in assay [7] was 4 (4=61-80%) in each case. For the same compound, the “percentage damage caused to the plant, AMARE” value in assay [4] and in assay [8] was 5 (5=81-100%) throughout.

As to `N#Cc1ccc(Cn2cc(C(F)(F)F)nc2-c2ccc(Cl)s2)nc1` [Compound 1.049], the entries for the “percentage damage caused to the plant, IPOHE” value with IPOHE [1] and with IPOHE [5] were 4 (4=61-80%) and 5 (5=81-100%), respectively. Moreover, the “percentage damage caused to the plant, AMAPA” value in the assay with AMAPA [2] and in the assay on AMAPA [6] was 5 (5=81-100%) each time. In addition, the “percentage damage caused to the plant, ECHCG” value in assay [3] and in assay [7] was 4 (4=61-80%) throughout. For the same compound, the “percentage damage caused to the plant, AMARE” value in assay [4] and in assay [8] was 5 (5=81-100%) in each case.

As for `Fc1ccc(Cn2cc(C(F)(F)F)nc2-c2ccc(Cl)s2)nc1` [Compound 1.050], the figures for the “percentage damage caused to the plant, IPOHE” value in the assay with IPOHE [1] and in the assay with IPOHE [5] were 4 (4=61-80%) and 5 (5=81-100%), respectively. Moreover, the “percentage damage caused to the plant, AMAPA” value is recorded as 4 (4=61-80%) in the assay on AMAPA [2] and 5 (5=81-100%) in the assay with AMAPA [6]. The “percentage damage caused to the plant, ECHCG” value in assay [3] was 4 (4=61-80%); in assay [7], 5 (5=81-100%). Further, the “percentage damage caused to the plant, AMARE” value is 4 (4=61-80%) in assay [4] and 5 (5=81-100%) in assay [8].

For `Fc1cc(Cl)cnc1Cn1cc(C(F)(F)F)nc1-c1ccc(Cl)s1` [Compound 1.051], the “percentage damage caused to the plant, IPOHE” value was 3 (3=41-60%) with IPOHE [1] and 4 (4=61-80%) in the assay on IPOHE [5]. Further, the “percentage damage caused to the plant, AMAPA” value in the assay with AMAPA [2] and with AMAPA [6] was 5 (5=81-100%) in each case. For the same compound, the entries for the “percentage damage caused to the plant, ECHCG” value in assay [3] and in assay [7] were 4 (4=61-80%) and 5 (5=81-100%), respectively. The “percentage damage caused to the plant, AMARE” value in assay [4] and in assay [8] was 5 (5=81-100%) in each case.
